This note sets out measurements from ChEMBL document CHEMBL1152564, “Antagonists of the human A(2A) receptor. Part 6: Further optimization of pyrimidine-4-carboxamides” (Bioorg Med Chem, 2009).

A word on the bioavailability: it is dose-corrected exposure relative to a reference, in per cent. Lower therefore signals little systemic uptake. The term clearance denotes the volume of plasma or blood freed of the substance per unit of time. A lower clearance goes with inefficient removal. For orientation: Vd means the apparent volume that relates the amount in the body to the concentration in plasma or blood. One may read the Tmax as the time from dosing to the highest level.

What all share (assay type): ADME, organism-based
A short description of data set [1]: Oral bioavailability in rat. The conditions noted are these: in vivo.
A short description of data set [2]: Clearance in rat. The settings on record: in vivo.
The nature of data set [3]: Volume of distribution in rat. The settings on record: in vivo.
Data set [4] is described as follows: Terminal half life in rat. The conditions noted are these: in vivo, read-out: beta t1/2 (converted).
Data set [5] is described as follows: Tmax in rat plasma.

For `Cc1cccc(CNC(=O)c2cc(-c3ccc(C)o3)nc(N)n2)n1`, in data set [1], the bioavailability was 3%. Further, in data set [2], the clearance is 32.5 mL/min/kg. The Vd in data set [3] was 0.7 L/kg. Also, in data set [4], the half-life is 3 h. The Tmax in data set [5] was 0.25 h.
